What was measured:
[1] = biological target: T1, CysLT2 receptor (Homo sapiens, UniProt Q9NS75); assay: LTD4-induced calcium flux (calcium mobilization, FLIPR) in CysLT2 receptor-transfected cells; assay type: cell-based; settings: antagonist dose-response curve, read-out: IC50 of blocking LTD4-induced calcium flux, CysLT2 receptor
T1 construct: expressed in transfected cells
T1 sequence (Q9NS75 1-346): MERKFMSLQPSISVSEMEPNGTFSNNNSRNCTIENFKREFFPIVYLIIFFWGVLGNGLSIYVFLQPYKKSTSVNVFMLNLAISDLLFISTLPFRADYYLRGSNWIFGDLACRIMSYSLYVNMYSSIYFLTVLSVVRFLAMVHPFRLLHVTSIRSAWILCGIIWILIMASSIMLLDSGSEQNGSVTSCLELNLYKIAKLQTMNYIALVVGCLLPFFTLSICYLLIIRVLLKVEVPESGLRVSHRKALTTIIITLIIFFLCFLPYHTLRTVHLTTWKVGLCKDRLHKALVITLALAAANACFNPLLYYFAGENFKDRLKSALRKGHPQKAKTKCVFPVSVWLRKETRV
Protocol: (§1) Compounds may be screened for effects on LTD4 induced calcium mobilization in cells transfected with CysLT2 receptor, according to the following calcium mobilization assay.
(§2) Human embryonic kidney (HEK293T) cells transiently transfected with the CysLT2 receptor using LipofectAMINE™2000 reagent (Life Technologies) or Chinese hamster ovary (CHO-NFAT) cells stably transfected with the CysLT2 type receptor are plated into Poly-D-Lysine treated black-wall microplates (Biocoat™) at 5×10^4 cells per well. Cells are maintained for approximately 24 hours at 37° C. and 5% CO2. After 24 hours, cells are loaded with Fluo4 calcium indicator dye (Molecular Probes) in the presence of 2.5 mM probenecid for one hour. After washing, the cells are treated with agonist, (10 nM LTD4, BioMol), and maximum fluorescence measured in a Molecular Devices Fluorometric Imaging Plate Reader (FLIPR). Compounds screened for antagonism are added five minutes prior to addition of agonist.
(§3) Agonist and Standard Antagonist Functional Characterization on Human CysLT1 and CysLT2 Receptors

[2] = biological target: T2, CysLT1 receptor (Homo sapiens, UniProt Q9Y271); assay: LTD4-induced calcium flux (calcium mobilization, FLIPR) in CysLT1 receptor transfected HEK293T cells; assay type: cell-based; settings: antagonist dose-response curve, read-out: IC50 of blocking LTD4-induced calcium flux, CysLT1 receptor
T2 construct: expressed in transfected cells; host or cells: HEK293T
T2 sequence (Q9Y271 1-337): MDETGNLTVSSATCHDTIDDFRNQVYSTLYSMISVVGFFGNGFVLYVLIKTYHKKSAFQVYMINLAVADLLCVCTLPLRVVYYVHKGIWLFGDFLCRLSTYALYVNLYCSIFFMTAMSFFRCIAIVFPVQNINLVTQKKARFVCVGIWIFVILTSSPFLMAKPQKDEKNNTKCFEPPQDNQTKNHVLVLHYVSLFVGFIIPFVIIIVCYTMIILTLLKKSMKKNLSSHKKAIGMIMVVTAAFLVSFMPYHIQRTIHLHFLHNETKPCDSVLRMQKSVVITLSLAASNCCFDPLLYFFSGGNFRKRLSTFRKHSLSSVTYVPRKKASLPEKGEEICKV
Protocol: as §1, §2
Compounds of interest from the CysLT2 receptor screen may also be assayed in a CysLT1 receptor counter screen. Compounds of interest may be assayed using the same protocol described above in cells transfected with the CysLT1 receptor.
as §3

Structure (SMILES): CCCCCCCCCc1ccc(C(Sc2cccc(NC(=O)CC(=O)O)c2)C(=O)CCCC(=O)O)cc1 (stereo not drawn) [Compound (I), 6-({3-[(carboxyacetyl)amino]phenyl}thio)-6-(4-nonylphenyl)-5-oxohexanoic acid]
- IC50 [1]: < 10 µM
- melting point: 88 to 91 °C
- IC50 [2]: < 10 µM
